Target: T1, Cbl-b (Homo sapiens, UniProt Q13191)
T1 construct: Cbl-b-HiBit KI Jurkat Cells were purchased from Promega; host or cells: Cbl-b-HiBiT knock-in Jurkat cells
Experiment: Cbl-b Degradation Method B (Nano-Glo HiBiT lytic detection)
Assay type: cell-based
Conditions: Cbl-b-HiBit KI Jurkat Cells, incubated at least 6-24 hours; for DC50: half maximal degradation, read-out: Cbl-b Degredation Method B IC50; for Dmax: maximum degradation observed, read-out: Cbl-b Degredation Method B Dmax (%)
Method in brief: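 Cbl-b-HiBiT knock-in Jurkat cells (20,000/well) were treated after ~24 h plating with an 11-point 1:3 series for 6-24 h at 37° C. Remaining Cbl-b measured by Nano-Glo HiBiT lytic luminescence. DC50 and Dmax expressed as % of control.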

T1 sequence (Q13191 whole entry): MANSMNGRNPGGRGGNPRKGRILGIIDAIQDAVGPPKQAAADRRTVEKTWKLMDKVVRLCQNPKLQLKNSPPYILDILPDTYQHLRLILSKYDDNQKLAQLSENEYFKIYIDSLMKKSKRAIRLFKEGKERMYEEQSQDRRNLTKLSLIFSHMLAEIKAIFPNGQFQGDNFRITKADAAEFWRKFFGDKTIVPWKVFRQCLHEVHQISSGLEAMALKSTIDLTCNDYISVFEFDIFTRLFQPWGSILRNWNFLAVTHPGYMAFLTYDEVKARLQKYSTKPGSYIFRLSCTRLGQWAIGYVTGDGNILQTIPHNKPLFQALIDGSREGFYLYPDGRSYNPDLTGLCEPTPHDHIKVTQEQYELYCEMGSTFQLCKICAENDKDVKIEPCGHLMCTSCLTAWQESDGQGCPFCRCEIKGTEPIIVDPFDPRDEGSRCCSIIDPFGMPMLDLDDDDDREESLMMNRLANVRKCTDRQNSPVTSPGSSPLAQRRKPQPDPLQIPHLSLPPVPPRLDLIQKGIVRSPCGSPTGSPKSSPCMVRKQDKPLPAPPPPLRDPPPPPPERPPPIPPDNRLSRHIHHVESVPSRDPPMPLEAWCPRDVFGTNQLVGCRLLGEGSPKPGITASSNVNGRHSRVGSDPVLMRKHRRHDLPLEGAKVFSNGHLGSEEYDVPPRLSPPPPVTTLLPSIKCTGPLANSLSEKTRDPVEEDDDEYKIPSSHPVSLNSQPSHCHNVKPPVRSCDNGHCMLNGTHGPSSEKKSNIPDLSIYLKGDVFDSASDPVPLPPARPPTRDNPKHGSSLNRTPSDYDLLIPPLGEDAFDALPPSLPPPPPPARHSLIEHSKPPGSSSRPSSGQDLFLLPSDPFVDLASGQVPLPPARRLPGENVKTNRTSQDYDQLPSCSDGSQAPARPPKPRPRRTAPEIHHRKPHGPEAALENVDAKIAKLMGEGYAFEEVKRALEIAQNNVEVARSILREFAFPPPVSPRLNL

| DC50 [nM] | Dmax [%] | SMILES |
| --- | --- | --- |
| < 5 | > 70 | CC(C)n1c(=O)n(C2CCC(=O)NC2=O)c2ccc(N3CCC(O[C@H]4CC[C@@H](CN5CCN(C[C@H]6CCCN(Cc7cc(C(F)(F)F)c8cn(-c9cccc(C%10(Cc%11nncn%11C)COC%10)c9)nc8c7)C6)C(C)(C)C5)CC4)CC3)cc21 (stereo partly drawn) [Example 266, 3-[2-oxo-3-(propan-2-yl)-5-(4-{[(1r,4r)-4-[(3,3-dimethyl-4-{[(3S)-1-{[2-(3-{3-[(4-methyl-4H-1,2,4-triazol-3-yl)methyl]oxetan-3-yl}phenyl)-4-(trifluoromethyl)-2H-indazol-6-yl]methyl}piperidin-3-yl]methyl}piperazin-1-yl)methyl]cyclohexyl]oxy}piperidin-1-yl)-2,3-dihydro-1H-1,3-benzodiazol-1-yl]piperidine-2,6-dione] |
| > 500 | – | Cn1cnnc1CC1(c2cccc(N3Cc4c(cc(CN5CC6(C5)CN(CC5CCN(c7cccc8c7C(=O)N(C7CCC(=O)NC7=O)C8=O)CC5)C6)cc4C(F)(F)F)C3=O)c2)COC1 (stereo not shown) [Example 69, 2-(2,6-dioxopiperidin-3-yl)-4-{4-[(6-{[2-(3-{3-[(4-methyl-4H-1,2,4-triazol-3-yl)methyl]oxetan-3-yl}phenyl)-3-oxo-7-(trifluoromethyl)-2,3-dihydro-1H-isoindol-5-yl]methyl}-2,6-diazaspiro[3.3]heptan-2-yl)methyl]piperidin-1-yl}-2,3-dihydro-1H-isoindole-1,3-dione] |
| > 500 | – | CC(C)n1c(=O)n(C2CCC(=O)NC2=O)c2cccc(N3CCC(CN4CCN(C[C@H]5CCCN(Cc6cc7c(c(C(F)(F)F)c6)CN(c6cccc(C8(Cc9nncn9C)CC(C#N)C8)c6)C7=O)C5)C(C)(C)C4)CC3)c21 (stereo partly drawn) [Example 288, (1r*,3r*)-3-[3-(6-{[(3S)-3-{[4-({1-[1-(2,6-dioxopiperidin-3-yl)-2-oxo-3-(propan-2-yl)-2,3-dihydro-1H-1,3-benzodiazol-4-yl]piperidin-4-yl}methyl)-2,2-dimethylpiperazin-1-yl]methyl}piperidin-1-yl]methyl}-1-oxo-4-(trifluoromethyl)-2,3-dihydro-1H-isoindol-2-yl)phenyl]-3-[(4-methyl-4H-1,2,4-triazol-3-yl)methyl]cyclobutane-1-carbonitrile] |
| < 5 | > 70 | C[C@@H]1CN(CC2CCC(OC3CCN(c4ccc5c(n4)[C@@H](C)N(C4CCC(=O)NC4=O)C5=O)CC3)CC2)CCN1Cc1cc2c(c(C(F)(F)F)c1)CN(c1cccc([C@]3(Cc4nncn4C)C[C@H](C#N)C3)c1)C2=O (single isomer, unassigned) [Example 239, (1rs&,3rs&)-3-[3-(6-{[(2R)-2-methyl-4-{[(1rs,4rs)-4-({1-[(7R*)-6-(2,6-dioxopiperidin-3-yl)-7-methyl-5-oxo-5H,6H,7H-pyrrolo[3,4-b]pyridin-2-yl]piperidin-4-yl}oxy)cyclohexyl]methyl}piperazin-1-yl]methyl}-1-oxo-4-(trifluoromethyl)-2,3-dihydro-1H-isoindol-2-yl)phenyl]-3-[(4-methyl-4H-1,2,4-triazol-3-yl)methyl]cyclobutane-1-carbonitrile] |
| > 500 | – | Cn1cnnc1CC1(c2cccc(-n3cc4ccc(CN5CCC[C@H](CN6CCN(C[C@H]7CC[C@H](OC8CCN(c9ccc%10c(c9F)CN(C9CCC(=O)NC9=O)C%10=O)CC8)CC7)CC6)C5)cc4n3)c2)COC1 (stereo partly drawn) [Example 147, 3-[4-fluoro-5-[4-[4-[[4-[[(3S)-1-[[2-[3-[3-[(4-methyl-1,2,4-triazol-3-yl)methyl]oxetan-3-yl]phenyl]indazol-6-yl]methyl]-3-piperidyl]methyl]piperazin-1-yl]methyl]cyclohexoxy]-1-piperidyl]-1-oxo-isoindolin-2-yl]piperidine-2,6-dione] |

Reference: patent US20260184710A1, “CASITAS B-LINEAGE LYMPHOMA PROTOONCOGENE B (CBL-B) DEGRADING COMPOUNDS AND ASSOCIATED METHODS OF USE” (Arvinas Operations, Inc., priority 2022, published 2026)
